Assay results taken from patent US20070082883A1, “HIV protease inhibitors” (THE BOARD OF TRUSTEES OF THE UNIVERSITY OF ILLINOIS, priority 2002, published 2007).
pIC50, pKi: −log10 of the molar value.

What follows are compounds tested against T1, HIV-1 protease (Human immunodeficiency virus type 1 group M subtype B, UniProt P04585) (assay: HIV-1 Protease Inhibition Assay). Conditions: cells marked (pM) in a column headed nM.
T1 construct: made in house; host or cells: E. coli BL21 (dE3)pLysS, pET30a vector
Format: biochemical
Source text: Assays of the dose-response effect of inhibitor compounds can be described as a curve expressing a degree of inhibition as a function of concentration. The curve theoretically passes through a point at which the concentration is sufficient to reduce activity of the HIV protease enzyme to a level that is 50% that of the difference between minimal and maximal enzyme activity in the assay.
HIV-1 Protease Inhibition Assay
The HIV-1 protease gene was subcloned into the pET30a vector (Novagen) and then transformed into BL21 (dE3)pLysS cells for protein expression. Protein expression and purification were followed according to Tang's procedure (Hong et al., Biochemistry, 1996, 35, 10627-10633). […] The inclusion body containing some bacterial proteins was thoroughly washed by using TRITON X-100, solubilized in […] and passed through the Q-sepharose column to remove the bacterial proteins which interfered with subsequent refolding steps. HIV-1 protease was refolded from the urea to an active form by dialysis. As a final step, gel filtration chromatography was used to remove impurities after refolding. Activities of purified HIV-1 protease were examined using a fluorogenic substrate, 2-aminobenzoyl-Thr-Ile-Nle-Phe(pNO2)-Gln-Arg-NH2 (Novabiochem). […] In the condition of So<<Km, v=Eo(kcat/Km)So, where Eo is the total enzyme concentration, and So is the substrate concentrate. […] Assays are carried out as described by Toth and Marshall (Toth et al., Int. J. Pept. Protein Res., 1990, 36, 544-50).

`COc1ccc(S(=O)(=O)N(C[C@H]2CCC(=O)N2)C[C@@H](O)[C@H](Cc2ccccc2)NC(=O)OC2CO[C@H]3OCC[C@@H]23)cc1` (stereo partly drawn) [Compound 273] and `COc1ccc(S(=O)(=O)N(C[C@@H]2CCC(=O)N2)C[C@@H](O)[C@H](Cc2ccccc2)NC(=O)OC2CO[C@H]3OCC[C@@H]23)cc1` (stereo partly drawn) [Compound 283] are within 1.5-fold of each other in IC50: 17 pM for the first, 14 pM for the second.

`Nc1ccc(S(=O)(=O)N(C[C@H]2CCC(=O)N2)C[C@@H](O)[C@H](Cc2ccccc2)NC(=O)OC2CO[C@H]3OCC[C@@H]23)cc1` (stereo partly drawn) [Compound 276] and `Nc1ccc(S(=O)(=O)N(C[C@H]2CCC(=O)N2)C[C@@H](O)[C@H](Cc2ccccc2)NC(=O)OC2CC[C@H]3OCC[C@@H]23)cc1` (stereo partly drawn) [Compound 281] are within 1.5-fold of each other in IC50: 20 pM for the first, 26 pM for the second.

Same assay, conditions: fluorogenic substrate assay

First: O=C(N[C@@H](Cc1ccccc1)[C@H](O)CN1CCCCCCCCCOc2ccccc2COC1=O)O[C@@H]1CC2CCO[C@@H]2C1 (stereo partly drawn) [Compound 228]
Second: O=C(N[C@@H](Cc1ccccc1)[C@H](O)CN1CCCCCCCCCCOc2cccc(c2)S1(=O)=O)O[C@@H]1CC2CCO[C@@H]2C1 (stereo partly drawn) [Compound 236]
The pIC50 of the first is 2.30 log units lower: 5.66 for the first, 7.96 for the second. The second is the more potent here.

First: C=CCCCCN(C[C@@H](O)[C@H](Cc1ccccc1)NC(=O)O[C@H]1CO[C@H]2OCCC21)S(=O)(=O)c1cccc(OCC=C)c1 (stereo partly drawn) [Compound 229]
Second: C=CCCCCN(C[C@@H](O)[C@H](Cc1ccccc1)NC(=O)O[C@H]1CO[C@H]2OCCC21)S(=O)(=O)c1cccc(OCCC=C)c1 (stereo partly drawn) [Compound 232]
The pIC50 of the first is 0.23 log units lower: 8.04 for the first, 8.27 for the second.

`O=C(N[C@@H](Cc1ccccc1)[C@H](O)CN1CCCCCCCOc2cccc(c2)S1(=O)=O)O[C@H]1CO[C@H]2OCCC21` (stereo partly drawn) [Compound 231] and `O=C(N[C@@H](Cc1ccccc1)[C@H](O)CN1CCCCCCCCOc2cccc(c2)S1(=O)=O)O[C@H]1CO[C@H]2OCCC21` (stereo partly drawn) [Compound 234] are within 0.2 log units of each other in pIC50: 8.07 for the first, 8.14 for the second.

`O=C(N[C@@H](Cc1ccccc1)[C@H](O)CN1CCCC/C=C\CCOc2cccc(c2)S1(=O)=O)O[C@H]1CO[C@H]2OCCC21` (stereo partly drawn) [Compound 233] and `O=C(N[C@@H](Cc1ccccc1)[C@H](O)CN1CCCC/C=C\CCCCOc2cccc(c2)S1(=O)=O)O[C@@H]1CC2CCO[C@@H]2C1` (stereo partly drawn) [Compound 235] are within 0.2 log units of each other in pIC50: 8.06 for the first, 8.03 for the second.

First: C=CCCCCN(C[C@@H](O)[C@H](Cc1ccccc1)NC(=O)O[C@@H]1CC2CCO[C@@H]2C1)S(=O)(=O)c1cccc(C(O)CC=C)c1 (stereo partly drawn) [Compound 237]
Second: CC(C)CN(C[C@@H](O)[C@H](Cc1ccccc1)NC(=O)O[C@@H]1CC2CCO[C@@H]2C1)S(=O)(=O)c1cccc(/C=N/O)c1 (stereo partly drawn) [Compound 257]
The pIC50 of the first is 0.54 log units lower: 8.00 for the first, 8.54 for the second.

First: O=C(N[C@@H](Cc1ccccc1)[C@H](O)CN1CCCCCCCC(O)c2cccc(c2)S1(=O)=O)O[C@@H]1CC2CCO[C@@H]2C1 (stereo partly drawn) [Compound 238]
Second: O=C(N[C@@H](Cc1ccccc1)[C@H](O)CN1CCCC/C=C/CCCC(O)c2cccc(c2)S1(=O)=O)OCc1cccnc1 (stereo partly drawn) [Compound 239]
The pIC50 of the first is 0.93 log units higher: 8.40 for the first, 7.47 for the second.

Going from `COc1ccc(S(=O)(=O)N(CC(C)C)C[C@@H](O)C(Cc2ccccc2)NC(=O)O[C@H]2CO[C@@H]3OCCC[C@@H]32)cc1` (stereo partly drawn) [Compound 253] to `CC(C)CN(C[C@@H](O)[C@H](Cc1ccccc1)NC(=O)O[C@@H]1CC2CCO[C@@H]2C1)S(=O)(=O)c1ccc(N)cc1` (stereo partly drawn) [Compound 261], the pIC50 falls from 9.00 to 8.66 (0.34 log units).

Compared with `CC(C)CN(C[C@H](O)C(Cc1ccccc1)NC(=O)O[C@@H]1C[C@@H]2CCO[C@@H]2C1)S(=O)(=O)c1ccc(CO)cc1` (stereo partly drawn) [Compound 254], `CC(C)CN(C[C@@H](O)[C@H](Cc1ccccc1)NC(=O)O[C@@H]1CC2CCO[C@@H]2C1)S(=O)(=O)c1ccc(/C=N/O)cc1` (stereo partly drawn) [Compound 256] is 0.23 log units lower in pIC50: 9.00 for the first, 8.77 for the second.

`CC(C)CN(C[C@@H](O)[C@H](Cc1ccccc1)NC(=O)O[C@@H]1CC2CCO[C@@H]2C1)S(=O)(=O)c1ccc(O)c(O)c1` (stereo partly drawn) [Compound 258] and `Cc1cc(S(=O)(=O)N(CC(C)C)C[C@@H](O)[C@H](Cc2ccccc2)NC(=O)O[C@@H]2CC3CCO[C@@H]3C2)ccc1CO` (stereo partly drawn) [Compound 259] are within 0.2 log units of each other in pIC50: 8.41 for the first, 8.55 for the second.

First: CC(C)CN(C[C@@H](O)[C@H](Cc1ccccc1)NC(=O)OC1CO[C@H]2OCC[C@@H]12)C1CC(C)(C)NC1=O (stereo partly drawn) [Compound 269]
Second: CC(C)CN(C[C@@H](O)[C@H](Cc1ccccc1)NC(=O)OC1CO[C@H]2OCC[C@@H]12)C1CC2(CCCC2)NC1=O (stereo partly drawn) [Compound 270]
The pIC50 of the first is 0.28 log units higher: 8.47 for the first, 8.19 for the second.

`COc1ccc(S(=O)(=O)N(C[C@H]2CCC(=O)N2)C[C@@H](O)[C@H](Cc2ccccc2)NC(=O)OC(C)(C)C)cc1` [Compound 271, ((1S)-Benzyl-(2R)-hydroxy-3-[(4-methoxybenzene-sulfonyl)-(5-oxopyrrolidin-(2R)-ylmethyl)amino]-propyl)carbamic acid tert-butyl ester] and `COc1ccc(S(=O)(=O)N(C[C@@H]2CCC(=O)N2)C[C@@H](O)[C@H](Cc2ccccc2)NC(=O)OC(C)(C)C)cc1` [Compound 272] are within 0.2 log units of each other in pIC50: 8.52 for the first, 8.47 for the second.

Going from `O=C1CC[C@H](CN(C[C@@H](O)[C@H](Cc2ccccc2)NC(=O)OC2CO[C@H]3OCC[C@@H]23)S(=O)(=O)c2ccc([N+](=O)[O-])cc2)N1` (stereo partly drawn) [Compound 274] to `O=C1CC[C@@H](CN(C[C@@H](O)[C@H](Cc2ccccc2)NC(=O)OC2CO[C@H]3OCC[C@@H]23)S(=O)(=O)c2ccc([N+](=O)[O-])cc2)N1` (stereo partly drawn) [Compound 275], the pIC50 falls from 10.00 to 9.43 (0.57 log units). The first is the more potent here.

Compared with `COc1ccc(S(=O)(=O)N(C[C@H]2CCC(=O)N2)C[C@@H](O)[C@H](Cc2ccccc2)NC(=O)OC2CC[C@H]3OCC[C@@H]23)cc1` (stereo partly drawn) [Compound 277], `COc1ccc(S(=O)(=O)N(C[C@@H]2CCC(=O)N2)C[C@@H](O)[C@H](Cc2ccccc2)NC(=O)OC2CC[C@H]3OCC[C@@H]23)cc1` (stereo partly drawn) [Compound 278] is 0.20 log units lower in pIC50: 10.00 for the first, 9.80 for the second.

Compared with `O=C1CC[C@H](CN(C[C@@H](O)[C@H](Cc2ccccc2)NC(=O)OC2CC[C@H]3OCC[C@@H]23)S(=O)(=O)c2ccc([N+](=O)[O-])cc2)N1` (stereo partly drawn) [Compound 279], `CC(C)(C)OC(=O)N[C@@H](Cc1ccccc1)[C@H](O)CN(C[C@H]1CCC(=O)N1)S(=O)(=O)c1ccc([N+](=O)[O-])cc1` [Compound 307a, {(1S)-Benzyl-(2R)-hydroxy-3-[(4-nitrobenzenesulfonyl)-(5-oxopyrrolidin-(2R)-ylmethyl)amino]propyl}-carbamic acid tert-butyl ester] is 1.32 log units lower in pIC50: 9.47 for the first, 8.15 for the second. The first is the more potent here.

Going from `CC(C)(C)OC(=O)N[C@@H](Cc1ccccc1)[C@H](O)CN(C[C@@H]1CCC(=O)N1)S(=O)(=O)c1ccc([N+](=O)[O-])cc1` [Compound 307b] to `CC(C)CN(C[C@@H](O)[C@H](Cc1ccccc1)NC(=O)OC(C)(C)C)C1CC2(CCCC2)NC1=O` (stereo partly drawn) [Compound 528b], the pIC50 falls from 7.92 to 6.41 (1.51 log units). The first is the more potent here.

Compared with `O=C(N[C@@H](Cc1ccccc1)[C@H](O)CN1CCCCCCCCCOc2ccccc2COC1=O)O[C@@H]1CC2CCO[C@@H]2C1` (stereo partly drawn) [Compound 228], `O=C(N[C@@H](Cc1ccccc1)[C@H](O)CN1CCCCCCCCCCOc2cccc(c2)S1(=O)=O)O[C@@H]1CC2CCO[C@@H]2C1` (stereo partly drawn) [Compound 236] is 2.27 log units higher in pKi: 6.20 for the first, 8.47 for the second.

`C=CCCCCN(C[C@@H](O)[C@H](Cc1ccccc1)NC(=O)O[C@H]1CO[C@H]2OCCC21)S(=O)(=O)c1cccc(OCC=C)c1` (stereo partly drawn) [Compound 229] and `C=CCCCCN(C[C@@H](O)[C@H](Cc1ccccc1)NC(=O)O[C@H]1CO[C@H]2OCCC21)S(=O)(=O)c1cccc(OCCC=C)c1` (stereo partly drawn) [Compound 232] are within 0.2 log units of each other in pKi: 8.68 for the first, 8.77 for the second.

`O=C(N[C@@H](Cc1ccccc1)[C@H](O)CN1CCCCCCCOc2cccc(c2)S1(=O)=O)O[C@H]1CO[C@H]2OCCC21` (stereo partly drawn) [Compound 231] and `O=C(N[C@@H](Cc1ccccc1)[C@H](O)CN1CCCCCCCCOc2cccc(c2)S1(=O)=O)O[C@H]1CO[C@H]2OCCC21` (stereo partly drawn) [Compound 234] are within 0.2 log units of each other in pKi: 8.57 for the first, 8.64 for the second.

`O=C(N[C@@H](Cc1ccccc1)[C@H](O)CN1CCCC/C=C\CCOc2cccc(c2)S1(=O)=O)O[C@H]1CO[C@H]2OCCC21` (stereo partly drawn) [Compound 233] and `O=C(N[C@@H](Cc1ccccc1)[C@H](O)CN1CCCC/C=C\CCCCOc2cccc(c2)S1(=O)=O)O[C@@H]1CC2CCO[C@@H]2C1` (stereo partly drawn) [Compound 235] are within 0.2 log units of each other in pKi: 8.57 for the first, 8.54 for the second.

First: C=CCCCCN(C[C@@H](O)[C@H](Cc1ccccc1)NC(=O)O[C@@H]1CC2CCO[C@@H]2C1)S(=O)(=O)c1cccc(C(O)CC=C)c1 (stereo partly drawn) [Compound 237]
Second: O=C(N[C@@H](Cc1ccccc1)[C@H](O)CN1CCCCCCCC(O)c2cccc(c2)S1(=O)=O)O[C@@H]1CC2CCO[C@@H]2C1 (stereo partly drawn) [Compound 238]
The pKi of the first is 0.41 log units lower: 8.51 for the first, 8.92 for the second. The second binds more tightly here.

Compared with `O=C(N[C@@H](Cc1ccccc1)[C@H](O)CN1CCCC/C=C/CCCC(O)c2cccc(c2)S1(=O)=O)OCc1cccnc1` (stereo partly drawn) [Compound 239], `CC(C)CN(C[C@@H](O)[C@H](Cc1ccccc1)NC(=O)O[C@@H]1CCOC1)[C@H]1CCNC1=O` [Compound 248] is 1.82 log units lower in pKi: 7.96 for the first, 6.14 for the second.

First: CC(C)CN(C[C@@H](O)[C@H](Cc1ccccc1)NC(=O)O[C@H]1CO[C@H]2OCC[C@H]21)[C@H]1CCNC1=O [Compound 249]
Second: CC(C)CN(C[C@@H](O)[C@H](Cc1ccccc1)NC(=O)O[C@H]1CO[C@H]2OCC[C@H]21)[C@@H]1C(=O)Nc2ccccc21 [Compound 250]
The pKi of the first is 1.57 log units lower: 7.43 for the first, 9.00 for the second. The second binds more tightly here.
